Assay results as given in US8785147B2, “L-threonine analysis method and L-threonine dehydrogenase” (Toyama Prefecture, priority 2010, dated 2014).
Like-named read-outs stand apart in the source and are kept apart here.

Legend:
[1] = molecular target: PfTDH: TDH from Pyrococcus furiosus (Pyrococcus furiosus, UniProt Q8U259); settings: cited from earlier work
[2] = test system: TDH derived from Cupriavidus necator NBRC 102504 (SEQ ID NO: 1) (CnTDH); test: Substrate specificity of TDH, standard assay; assay type: biochemical; settings: for Activity of the enzyme with the coenzyme (in words): as coenzyme
Procedure: L-threonine oxidation activity was determined by measuring coenzyme NAD^+ reduction at 30° C. and 340 nm. The reaction composition consisted of a total volume of 1 mL and contained L-threonine (final concentration 10 mM), NAD^+ (final concentration 2.5 mM), and glycine-KCl—KOH buffer (100 mM, pH 10.0). The measurement of activity began with the addition of the enzyme. One unit (U) of enzymatic activity was defined as the amount of enzyme producing 1 μmol of NADH per minute under standard conditions.
TDH was examined using substrates in the form of various L-amino acids, amino alcohols, and alcohols. […]

[3] = test system: CsTDH: TDH from Clostridium sticklandii; settings: cited from earlier work
[4] = test system: CyTDH: TDH from Cytophaga sp. KUC-1; settings: cited from earlier work
[5] = test system: Purified TDH derived from Cupriavidus necator NBRC 102504; test: Effect of metal ions and inhibitors on TDH activity (residual activity); assay type: biochemical
[6] = substrate specificity, L-threonine = 100
[7] = substrate concentration 10 mM, standard assay conditions, L-threonine = 100
[8] = metal ions final concentration 1 mM, 30° C. for 1 hour, relative to enzyme without additives
[9] = inhibitors final concentration 10 mM, 30° C. for 1 hour
[10] = inhibitors final concentration 10 mM, 30° C. for 1 hour, None = 100

PfTDH: TDH from Pyrococcus furiosus, sequence (Q8U259 whole entry): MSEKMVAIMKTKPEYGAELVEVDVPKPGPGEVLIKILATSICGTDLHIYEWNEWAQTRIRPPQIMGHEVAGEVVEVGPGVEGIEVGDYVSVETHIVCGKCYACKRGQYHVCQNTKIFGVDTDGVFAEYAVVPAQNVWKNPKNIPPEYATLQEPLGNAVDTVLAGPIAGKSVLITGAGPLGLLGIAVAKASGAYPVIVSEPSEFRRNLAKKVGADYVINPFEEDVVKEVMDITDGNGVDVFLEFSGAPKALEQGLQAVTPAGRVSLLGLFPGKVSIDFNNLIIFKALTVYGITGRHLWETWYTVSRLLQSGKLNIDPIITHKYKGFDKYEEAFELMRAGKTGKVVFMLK

Compound: C[C@H](N)C(=O)O [L-alanine]
- Relative activity (%) PfTDH [1, 6]: 0%
- Relative activity (%) CnTDH [2, 7]: 0%
- Relative activity (%) CsTDH [3, 6]: 0%
- Relative activity (%) CyTDH [4, 6]: 0%

Compound: N[C@H](CO)C(=O)O [D-serine]
- Relative activity (%) CnTDH [2, 7]: 0%

Compound: [Cl-].[Cs+] [CsCl]
- Relative activity (residual TDH activity) [5, 8]: 117%

Compound: O=[N+]([O-])[O-].[Ag+] [AgNO3]
- Relative activity (residual TDH activity) [5, 8]: 100%

Compound: O=C(O)[C@@H]1CCCN1 [L-proline]
- Relative activity (%) PfTDH [1]: 0%
- Relative activity (%) CnTDH [2, 7]: 0%
- Relative activity (%) CsTDH [3, 6]: 0%
- Relative activity (%) CyTDH [4, 6]: 0%

Compound: NCCS(=O)(=O)O [Taurine]
- Relative activity (%) CnTDH [2, 7]: 0%

Compound: Calcium pantothenate
- Inhibition of TDH activity (in words) [5, 9]: slight inhibiting
- Relative activity (%) (residual TDH activity) [5, 10]: 95.0%

Compound: NCCCC[C@H](N)C(=O)O [L-lysine]
- Relative activity (%) PfTDH [1, 6]: 0%
- Relative activity (%) CnTDH [2, 7]: 0%
- Relative activity (%) CsTDH [3, 6]: 0%
- Relative activity (%) CyTDH [4, 6]: 0%

Compound: NC(=O)CC[C@H](N)C(=O)O [L-glutamine]
- Relative activity (%) PfTDH [1, 6]: 0%
- Relative activity (%) CnTDH [2, 7]: 0%
- Relative activity (%) CsTDH [3, 6]: 0%
- Relative activity (%) CyTDH [4, 6]: 0%

Compound: CCC(N)CO (racemic) [DL-2-amino1-butanol]
- Relative activity (%) CnTDH [2, 7]: 0%

Compound: [Na+].[Na+].[O]=[Mo](=[O])([O-])[O-] [NaMoO4]
- Relative activity (residual TDH activity) [5, 8]: 113%

Compound: [Cl][Cu][Cl] [CuCl2]
- Relative activity (residual TDH activity) [5, 8]: 117%

Compound: NCCC[C@H](N)C(=O)O [L-ornithine]
- Relative activity (%) PfTDH [1]: 0%
- Relative activity (%) CnTDH [2, 7]: 0%

Compound: O=C(O)CI [Iodoacetic acid]
- Relative activity (%) (residual TDH activity) [5]: 48%

Compound: CC(O)CCO (stereo not drawn) [1,3-Butanediol]
- Relative activity (%) PfTDH [1, 6]: 0%
- Relative activity (%) CnTDH [2, 7]: 0%

Compound: CCOC(=O)OC(=O)OCC [DEPC]
- Relative activity (%) (residual TDH activity) [5, 10]: 92%

Compound: CC(O)C(C)O (stereo not drawn) [2,3-Butanediol]
- Relative activity (%) PfTDH [1, 6]: 94%
- Relative activity (%) CnTDH [2, 7]: 0%

Compound: O=S(=O)([O-])[O-].[Mg+2] [MgSO4]
- Relative activity (residual TDH activity) [5, 8]: 112%

Compound: N[C@@H](Cc1c[nH]cn1)C(=O)O [L-histidine]
- Relative activity (%) PfTDH [1, 6]: 0%
- Relative activity (%) CnTDH [2, 7]: 0%
- Relative activity (%) CsTDH [3, 6]: 0%
- Relative activity (%) CyTDH [4, 6]: 0%

Compound: [Cl][Ni][Cl] [NiCl2]
- Relative activity (residual TDH activity) [5, 8]: 119%

Compound: C[C@@H](O)[C@@H](N)C(=O)O [D-allothreonine]
- Relative activity (%) CnTDH [2, 7]: 0%
- Relative activity (%) CsTDH [3, 6]: 0%
- Relative activity (%) CyTDH [4, 6]: 0%

Compound: CSCC[C@H](N)C(=O)O [L-methionine]
- Relative activity (%) PfTDH [1]: 0%
- Relative activity (%) CnTDH [2, 7]: 0%
- Relative activity (%) CsTDH [3, 6]: 0%
- Relative activity (%) CyTDH [4, 6]: 0%

Compound: CC[C@H](C)[C@H](N)C(=O)O [L-isoleucine]
- Relative activity (%) PfTDH [1, 6]: 0%
- Relative activity (%) CnTDH [2, 7]: 0%
- Relative activity (%) CsTDH [3, 6]: 0%
- Relative activity (%) CyTDH [4, 6]: 0%

Compound: CCCCO [1-Butanol]
- Relative activity (%) PfTDH [1]: 0%
- Relative activity (%) CnTDH [2, 7]: 0%

Compound: CCC(C)O (stereo not drawn) [2-Butanol]
- Relative activity (%) PfTDH [1]: 0%
- Relative activity (%) CnTDH [2, 7]: 0%
- Relative activity (%) CyTDH [4, 6]: 0%

Compound: CC(=O)C(C)O (stereo not drawn) [Acetoin]
- Relative activity (%) PfTDH [1, 6]: 38%
- Relative activity (%) CnTDH [2, 7]: 0%
- Relative activity (%) CsTDH [3, 6]: 0%

Compound: [Cl][Fe]([Cl])[Cl] [FeCl3]
- Relative activity (residual TDH activity) [5, 8]: 27%

Compound: [Ba+2].[Cl-].[Cl-] [BaCl2]
- Relative activity (residual TDH activity) [5, 8]: 113%

Compound: NCC(=O)O [Glycine]
- Relative activity (%) PfTDH [1]: 0%
- Relative activity (%) CnTDH [2, 7]: 0%
- Relative activity (%) CsTDH [3, 6]: 0%
- Relative activity (%) CyTDH [4, 6]: 0%

Compound: NC(=O)c1ccc[n+]([C@@H]2O[C@H](COP(=O)([O-])OP(=O)(O)OC[C@H]3O[C@@H](n4cnc5c(N)ncnc54)[C@H](O)[C@@H]3O)[C@@H](O)[C@H]2O)c1 [NAD^+, nicotinamide adenine dinucleotide]
- Activity of the enzyme with the coenzyme (in words) [2]: showed the activity

Compound: C[C@@H](O)[C@H](N)C(=O)O (racemic) [DL-threonine]
- Relative activity (%) CnTDH [2, 7]: 64%

Compound: [Cl][Mn][Cl] [MnCl2]
- Relative activity (residual TDH activity) [5, 8]: 102%

Compound: O[C@@H](CS)[C@@H](O)CS [DTT]
- Inhibition of TDH activity (in words) [5, 9]: Nor did the reducing agents β-mercaptoethanol and DTT inhibit enzymatic activity
- Relative activity (%) (residual TDH activity) [5, 10]: 125%

Compound: O=C(O)c1cc[c]([Hg][Cl])cc1 [PCMB]
- Relative activity (%) (residual TDH activity) [5, 10]: 6.2%

Compound: O=C(O)CN(CCN(CC(=O)O)CC(=O)O)CC(=O)O [EDTA]
- Inhibition of TDH activity (in words) [5, 9]: not inhibited
- Relative activity (%) (residual TDH activity) [5, 10]: 103%

Compound: [Cl-].[Cl-].[Mg+2] [MgCl2]
- Relative activity (residual TDH activity) [5, 8]: 112%

Compound: N=C(N)NCCC[C@H](N)C(=O)O [L-arginine]
- Relative activity (%) PfTDH [1]: 0%
- Relative activity (%) CnTDH [2]: 0%
- Relative activity (%) CsTDH [3]: 0%
- Relative activity (%) CyTDH [4]: 0%

Compound: CoCl2
- Relative activity (residual TDH activity) [5]: 115%

Compound: [N-]=[N+]=[N-].[Na+] [NaN3]
- Relative activity (%) (residual TDH activity) [5]: 12%

Compound: CCC(O)CO (stereo not drawn) [1,2-Butanediol]
- Relative activity (%) PfTDH [1, 6]: 52%
- Relative activity (%) CnTDH [2, 7]: 0%

Compound: N[C@@H](Cc1c[nH]c2ccccc12)C(=O)O [L-tryptophan]
- Relative activity (%) PfTDH [1, 6]: 0%
- Relative activity (%) CnTDH [2, 7]: 0%
- Relative activity (%) CsTDH [3, 6]: 0%
- Relative activity (%) CyTDH [4, 6]: 0%

Compound: O=S(=O)([O-])[O-].[Mn+2] [MnSO4]
- Relative activity (residual TDH activity) [5, 8]: 114%

Compound: [Cl][Fe][Cl] [FeCl2]
- Relative activity (residual TDH activity) [5, 8]: 68%

Compound: [Ca+2].[Cl-].[Cl-] [CaCl2]
- Relative activity (residual TDH activity) [5, 8]: 109%

Compound: NC(=O)c1ccc[n+]([C@@H]2O[C@H](COP(=O)([O-])OP(=O)(O)OC[C@H]3O[C@@H](n4cnc5c(N)ncnc54)[C@H](OP(=O)(O)O)[C@@H]3O)[C@@H](O)[C@H]2O)c1 [NADP^+]
- Activity of the enzyme with the coenzyme (in words) [2]: No activity of the enzyme was observed

Compound: [Cl-].[Li+] [LiCl]
- Relative activity (residual TDH activity) [5, 8]: 109%

Compound: O=S(=O)([O-])[O-].[Cu+2] [CuSO4]
- Relative activity (residual TDH activity) [5, 8]: 115%

Compound: [Cl][Sn][Cl] [SnCl2]
- Relative activity (residual TDH activity) [5, 8]: 84%

Compound: OCC(O)CO [Glycerol]
- Relative activity (%) PfTDH [1, 6]: 4%
- Relative activity (%) CnTDH [2, 7]: 0%

Compound: O=S(=O)([O-])[O-].[Zn+2] [ZnSO4]
- Relative activity (residual TDH activity) [5, 8]: 109%

Compound: [Cl][Hg][Cl] [HgCl2]
- Relative activity (%) (residual TDH activity) [5]: 23%

Compound: N[C@@H](CC(=O)O)C(=O)O [L-aspartic acid]
- Relative activity (%) PfTDH [1, 6]: 0%
- Relative activity (%) CnTDH [2, 7]: 0%
- Relative activity (%) CsTDH [3, 6]: 0%
- Relative activity (%) CyTDH [4, 6]: 0%

Compound: COS(=O)(=O)[O-].C[n+]1c2ccccc2nc2ccccc21 [PMS, phenazine methosulfate]
- Inhibition of TDH activity (in words) [5, 9]: inhibited
- Relative activity (%) (residual TDH activity) [5, 10]: 0.0%

Compound: [Cl][Pb][Cl] [PbCl2]
- Relative activity (residual TDH activity) [5, 8]: 118%

Compound: [Cl][Al]([Cl])[Cl] [AlCl3]
- Relative activity (residual TDH activity) [5, 8]: 118%

Compound: [Cl-].[Cl-].[Zn+2] [ZnCl2]
- Relative activity (residual TDH activity) [5, 8]: 105%

Compound: NC(=O)CI [Iodoacetamide]
- Inhibition of TDH activity (in words) [5, 9]: inhibited
- Relative activity (%) (residual TDH activity) [5, 10]: 0.8%

Compound: CCN1C(=O)C=CC1=O [NEM]
- Inhibition of TDH activity (in words) [5, 9]: inhibited
- Relative activity (%) (residual TDH activity) [5, 10]: 0.0%

Compound: OCCS [β-mercaptoethanol]
- Inhibition of TDH activity (in words) [5, 9]: Nor did the reducing agents β-mercaptoethanol and DTT inhibit enzymatic activity
- Relative activity (%) (residual TDH activity) [5, 10]: 114%

Compound: O=C(O)CN(CCOCCOCCN(CC(=O)O)CC(=O)O)CC(=O)O [EGTA]
- Inhibition of TDH activity (in words) [5, 9]: not inhibited
- Relative activity (%) (residual TDH activity) [5, 10]: 94%

Compound: [Cl][Cr]([Cl])[Cl] [CrCl3]
- Relative activity (residual TDH activity) [5, 8]: 110%
